Data: US12331040B2 (Karyopharm Therapeutics Inc., priority 2013, dated 2025)
Read-outs that look alike come from different tables or passages of the source.

Assays:
Experiment in all cases: MTT cell proliferation assay
Format in all cases: cell-based
3T3 cells = details: Mus musculus, NIH3T3, approximately 64-72 hours incubation
Description: (§1) The MTT cell proliferation assay was used to study the cytotoxic properties of the compounds. The assay was performed according to the method described by Roche Molecular Biochemicals, with minor modifications. The assay is based on the cleavage of the tetrazolium salt, MTT, in the presence of an electron-coupling reagent. The water-insoluble formazan salt produced must be solubilized in an additional step. Cells grown in a 96-well tissue culture plate were incubated with the MTT solution for approximately 4 hours. After this incubation period, a water-insoluble formazan dye formed. After solubilization, the formazan dye was quantitated using a scanning multi-well spectrophotometer (ELISA reader). […] The cells were seeded at 5,000-10,000 cells in each well of 96-well plate in 100 μL of fresh culture medium and were allowed to attach overnight. The stock solutions of the compounds were diluted in 100 μL cell culture medium to obtain eight concentrations of each test compound, ranging from 1 nM to 30 μM. […] All optical densities were measured at 490 nm using a Vmax Kinetic Microplate Reader (Molecular Devices). In most cases, the assay was performed in duplicate and the results were presented as a mean percent inhibition to the negative control±SE. The following formula was used to calculate the percent of inhibition: Inhibition (%)=(1−(ODo/OD))×100.
(§2) The compounds were tested against MS751, Z138 and 3T3 cells. The MS751 cell line is derived from a metastasis to lymph node of human cervix from a patient diagnosed with squamous cell carcinoma of the cervix. The Z138 cell line is a mature B-cell acute lymphoblastic leukemia cell line derived from a patient with chronic lymphocytic leukemia. 3T3 cells are standard fibroblast cells; they were originally isolated from Swiss mouse embryo tissue.

MS751 cells = details: Homo sapiens, MS751, MS751 cells, approximately 64-72 hours incubation
Description: as §1, §2

Z138 cells = details: Homo sapiens, Z-138, Z138 cells, approximately 64-72 hours incubation
Description: as §1, §2

[1] = read-out: MTT Assay IC50, MS-751
[2] = read-out: MTT Assay IC50, Z-138
[3] = read-out: MTT Assay IC50 MS-751

Compound: Nc1ccc(/C=C/C(=O)NCc2cc3cc(-c4ccc(C(=O)N5CC(O)(C(F)(F)F)C5)cn4)cc(C(F)(F)F)c3o2)cn1 [Compound 747, (E)-3-(6-aminopyridin-3-yl)-N-((5-(5-(3-hydroxy-3-(trifluoromethyl)azetidine-1-carbonyl)pyridin-2-yl)-7-(trifluoromethyl)benzofuran-2-yl)methyl)acrylamide]
- IC50 (3T3 cells; read-out: MTT Assay IC50, 3T3): > 10 µM
- IC50 (MS751 cells; [1]): 0.1 to 5 µM
- IC50 (Z138 cells; [2]): 0.1 to 5 µM

Compound: Nc1ccc(/C=C/C(=O)NCc2cc3cc(-c4ccc(C(=O)N5CC(F)C5)cc4)cc(C(F)(F)F)c3o2)cn1 [Compound 524, (E)-3-(6-aminopyridin-3-yl)-N-((5-(4-(3-fluoroazetidine-1-carbonyl)phenyl)-7-(trifluoromethyl)benzofuran-2-yl)methyl)acrylamide]
- IC50 (3T3 cells; read-out: MTT Assay IC50 3T3): > 10 µM
- IC50 (MS751 cells; [3]): 0.1 to 5 µM
- IC50 (Z138 cells; read-out: MTT Assay IC50 Z-138): 0.1 to 5 µM

Compound: CN1CCN(C(=O)c2ccc(-c3cc(Cl)c4oc(CNC(=O)/C=C/c5ccc(N)nc5)cc4c3)nc2)CC1 [Compound 584, (E)-3-(6-aminopyridin-3-yl)-N-((7-chloro-5-(5-(4-methylpiperazine-1-carbonyl)pyridin-2-yl)benzofuran-2-yl)methyl)acrylamide]
- IC50 (3T3 cells; read-out: MTT Assay IC50 3T3): 5 to 10 µM
- IC50 (MS751 cells; [3]): < 0.1 µM
- IC50 (Z138 cells; read-out: MTT Assay IC50 Z-138): < 0.1 µM

Compound: Nc1ccc(/C=C/C(=O)NCc2cc3cc(-c4cc(C(=O)N5CCOCC5)c(F)cn4)cc(C(F)(F)F)c3o2)cn1 [Compound 580, (E)-3-(6-aminopyridin-3-yl)-N-((5-(5-fluoro-4-(morpholine-4-carbonyl)pyridin-2-yl)-7-(trifluoromethyl)benzofuran-2-yl)methyl)acrylamide]
- IC50 (3T3 cells; read-out: MTT Assay IC50 3T3): 5 to 10 µM
- IC50 (MS751 cells; [3]): < 0.1 µM
- IC50 (Z138 cells; read-out: MTT Assay IC50 Z-138): < 0.1 µM

Compound: Nc1ccc(/C=C/C(=O)NCc2cc3cc(-c4ccc(C(=O)N5CCC(F)(F)CC5)cc4)cc(-c4cc(F)ccc4F)c3o2)cn1 [Compound 740, (E)-3-(6-aminopyridin-3-yl)-N-((7-(2,5-difluorophenyl)-5-(4-(4,4-difluoropiperidine-1-carbonyl)phenyl)benzofuran-2-yl)methyl)acrylamide]
- IC50 (3T3 cells; read-out: MTT Assay IC50, 3T3): 0.1 to 5 µM
- IC50 (MS751 cells; [1]): < 0.1 µM
- IC50 (Z138 cells; [2]): < 0.1 µM

Compound: CN1CCN(C(=O)c2ccc(-c3cc(C(F)(F)F)c4oc(CNC(=O)/C=C/c5ccc(N)nc5)cc4c3)cc2)CC1 [Compound 561, (E)-3-(6-aminopyridin-3-yl)-N-((5-(4-(4-methylpiperazine-1-carbonyl)phenyl)-7-(trifluoromethyl)benzofuran-2-yl)methyl)acrylamide]
- IC50 (3T3 cells; read-out: MTT Assay IC50 3T3): 5 to 10 µM
- IC50 (MS751 cells; [3]): < 0.1 µM
- IC50 (Z138 cells; read-out: MTT Assay IC50 Z-138): < 0.1 µM

Compound: Nc1ccc(/C=C/C(=O)NCc2cc3cc(-c4ccc(C(=O)N5CC(F)(F)C5)cc4)cc(C(F)(F)F)c3o2)cn1 [Compound 520, (E)-3-(6-aminopyridin-3-yl)-N-((5-(4-(3,3-difluoroazetidine-1-carbonyl)phenyl)-7-(trifluoromethyl)benzofuran-2-yl)methyl)acrylamide]
- IC50 (3T3 cells; read-out: MTT Assay IC50 3T3): > 10 µM
- IC50 (MS751 cells; [3]): 0.1 to 5 µM
- IC50 (Z138 cells; read-out: MTT Assay IC50 Z-138): 0.1 to 5 µM

Compound: Nc1ccc(/C=C/C(=O)NCc2cc3cc(-c4ccc(C(=O)N5CC[C@H](F)C5)cn4)cc(C(F)(F)F)c3o2)cn1 [Compound 570, (S,E)-3-(6-aminopyridin-3-yl)-N-((5-(5-(3-fluoropyrrolidine-1-carbonyl)pyridin-2-yl)-7-(trifluoromethyl)benzofuran-2-yl)methyl)acrylamide]
- IC50 (3T3 cells; read-out: MTT Assay IC50 3T3): > 10 µM
- IC50 (MS751 cells; [3]): 0.1 to 5 µM
- IC50 (Z138 cells; read-out: MTT Assay IC50 Z-138): < 0.1 µM

Compound: Nc1ccc(/C=C/C(=O)NCc2cc3cc(-c4ccc(F)c(C(=O)N5CCOCC5)c4)cc(Cl)c3o2)cn1 [Compound 562, (E)-3-(6-aminopyridin-3-yl)-N-((7-chloro-5-(4-fluoro-3-(morpholine-4-carbonyl)phenyl)benzofuran-2-yl)methyl)acrylamide]
- IC50 (3T3 cells; read-out: MTT Assay IC50 3T3): > 10 µM
- IC50 (MS751 cells; [3]): < 0.1 µM
- IC50 (Z138 cells; read-out: MTT Assay IC50 Z-138): < 0.1 µM

Compound: O=C(/C=C/c1ccc(Cl)nc1)NCc1cc2cc(-c3ccc(C(=O)N4CCOCC4)cc3)cc(Cl)c2o1 [Compound 537, (E)-N-((7-Chloro-5-(4-(morpholine-4-carbonyl)phenyl)benzofuran-2-yl)methyl)-3-(6-chloropyridin-3-yl)acrylamide]
- IC50 (3T3 cells; read-out: MTT Assay IC50 3T3): > 10 µM
- IC50 (MS751 cells; [3]): > 10 µM
- IC50 (Z138 cells; read-out: MTT Assay IC50 Z-138): > 10 µM

Compound: Nc1ccc(/C=C/C(=O)NCc2cc3cc(-c4ccc(C(=O)N5CCC(F)CC5)cc4)cc(C(F)(F)F)c3o2)cn1 [Compound 567, (E)-3-(6-aminopyridin-3-yl)-N-((5-(4-(4-fluoropiperidine-1-carbonyl)phenyl)-7-(trifluoromethyl)benzofuran-2-yl)methyl)acrylamide]
- IC50 (3T3 cells; read-out: MTT Assay IC50 3T3): > 10 µM
- IC50 (MS751 cells; [3]): 0.1 to 5 µM
- IC50 (Z138 cells; read-out: MTT Assay IC50 Z-138): 0.1 to 5 µM

Compound: Nc1ccc(/C=C/C(=O)NCc2cc3cc(-c4ccc(C(=O)N5CCC(F)(F)CC5)cn4)cc(-c4cccnc4)c3o2)cn1 [Compound 669, (E)-3-(6-aminopyridin-3-yl)-N-((5-(5-(4,4-difluoropiperidine-1-carbonyl)pyridin-2-yl)-7-(pyridin-3-yl)benzofuran-2-yl)methyl)acrylamide]
- IC50 (3T3 cells; read-out: MTT Assay IC50, 3T3): 0.1 to 5 µM
- IC50 (MS751 cells; [1]): < 0.1 µM
- IC50 (Z138 cells; [2]): < 0.1 µM

Compound: Nc1ccc(/C=C/C(=O)NCc2cc3cc(-c4ccc(C(=O)N5CCOCC5)c(F)c4F)cc(Cl)c3o2)cn1 [Compound 548, (E)-3-(6-aminopyridin-3-yl)-N-((7-chloro-5-(2,3-difluoro-4-(morpholine-4-carbonyl)phenyl)benzofuran-2-yl)methyl)acrylamide]
- IC50 (3T3 cells; read-out: MTT Assay IC50 3T3): > 10 µM
- IC50 (MS751 cells; [3]): 0.1 to 5 µM
- IC50 (Z138 cells; read-out: MTT Assay IC50 Z-138): 0.1 to 5 µM

Compound: C[C@H]1COCCN1C(=O)c1ccc(-c2cc(Cl)c3oc(CNC(=O)/C=C/c4ccc(N)nc4)cc3c2)cc1 [Compound 515, (S,E)-3-(6-aminopyridin-3-yl)-N-((7-chloro-5-(4-(3-methylmorpholine-4-carbonyl)phenyl)benzofuran-2-yl)methyl)acrylamide]
- IC50 (3T3 cells; read-out: MTT Assay IC50 3T3): > 10 µM
- IC50 (MS751 cells; [3]): 0.1 to 5 µM
- IC50 (Z138 cells; read-out: MTT Assay IC50 Z-138): 0.1 to 5 µM

Compound: CC1(C)CN(C(=O)c2ccc(-c3cc(C(F)(F)F)c4oc(CNC(=O)/C=C/c5ccc(N)nc5)cc4c3)cc2)C1 [Compound 526, (E)-3-(6-aminopyridin-3-yl)-N-((5-(4-(3,3-dimethylazetidine-1-carbonyl)phenyl)-7-(trifluoromethyl)benzofuran-2-yl)methyl)acrylamide]
- IC50 (3T3 cells; read-out: MTT Assay IC50 3T3): > 10 µM
- IC50 (MS751 cells; [3]): 0.1 to 5 µM
- IC50 (Z138 cells; read-out: MTT Assay IC50 Z-138): 0.1 to 5 µM

Compound: Nc1ccc(/C=C/C(=O)NCc2cc3cc(-c4ccc(C(=O)N5CC6CC(C5)O6)cn4)cc(C(F)(F)F)c3o2)cn1 [Compound 626, (E)-N-((5-(5-(6-oxa-3-azabicyclo[3.1.1]heptane-3-carbonyl)pyridin-2-yl)-7-(trifluoromethyl)benzofuran-2-yl)methyl)-3-(6-aminopyridin-3-yl)acrylamide]
- IC50 (3T3 cells; read-out: MTT Assay IC50 3T3): > 10 µM
- IC50 (MS751 cells; [3]): 0.1 to 5 µM
- IC50 (Z138 cells; read-out: MTT Assay IC50 Z-138): 0.1 to 5 µM

Compound: O=C(/C=C/c1cccnc1)NCc1cc2cc(-c3ccc(C(=O)N4CCC(F)(F)CC4)cc3F)cc(C(F)(F)F)c2o1 [Compound 684, (E)-N-((5-(4-(4,4-difluoropiperidine-1-carbonyl)-2-fluorophenyl)-7-(trifluoromethyl)benzofuran-2-yl)methyl)-3-(pyridin-3-yl)acrylamide]
- IC50 (3T3 cells; read-out: MTT Assay IC50, 3T3): > 10 µM
- IC50 (MS751 cells; [1]): 0.1 to 5 µM
- IC50 (Z138 cells; [2]): 0.1 to 5 µM

Compound: Nc1ccc(/C=C/C(=O)NCc2cc3cc(-c4ccc(C(=O)N5CCC(F)(F)CC5)cc4)cc(-c4ccc(F)cc4Cl)c3o2)cn1 [Compound 738, (E)-3-(6-aminopyridin-3-yl)-N-((7-(2-chloro-4-fluorophenyl)-5-(4-(4,4-difluoropiperidine-1-carbonyl)phenyl)benzofuran-2-yl)methyl)acrylamide]
- IC50 (3T3 cells; read-out: MTT Assay IC50, 3T3): 0.1 to 5 µM
- IC50 (MS751 cells; [1]): < 0.1 µM
- IC50 (Z138 cells; [2]): < 0.1 µM

Compound: Nc1ccc(/C=C/C(=O)NCc2cc3cc(-c4ccc(C(=O)N5CCC(F)(F)CC5)cc4)cc(-c4cc(F)cc(F)c4)c3o2)cn1 [Compound 734, (E)-3-(6-aminopyridin-3-yl)-N-((7-(3,5-difluorophenyl)-5-(4-(4,4-difluoropiperidine-1-carbonyl)phenyl)benzofuran-2-yl)methyl)acrylamide]
- IC50 (3T3 cells; read-out: MTT Assay IC50, 3T3): 0.1 to 5 µM
- IC50 (MS751 cells; [1]): < 0.1 µM
- IC50 (Z138 cells; [2]): < 0.1 µM

Compound: CC1(F)CCN(C(=O)c2ccc(-c3cc(C(F)(F)F)c4oc(CNC(=O)/C=C/c5ccc(N)nc5)cc4c3)nc2)C1 (stereo not drawn) [Compound 617, (E)-3-(6-aminopyridin-3-yl)-N-((5-(5-(3-fluoro-3-methylpyrrolidine-1-carbonyl)pyridin-2-yl)-7-(trifluoromethyl)benzofuran-2-yl)methyl)acrylamide]
- IC50 (3T3 cells; read-out: MTT Assay IC50 3T3): > 10 µM
- IC50 (MS751 cells; [3]): 0.1 to 5 µM
- IC50 (Z138 cells; read-out: MTT Assay IC50 Z-138): < 0.1 µM

Compound: Nc1ccc(/C=C/C(=O)NCc2cc3cc(-c4cncc(C(=O)N5CCOCC5)c4)cc(Cl)c3o2)cn1 [Compound 534, (E)-3-(6-aminopyridin-3-yl)-N-((7-chloro-5-(5-(morpholine-4-carbonyl)pyridin-3-yl)benzofuran-2-yl)methyl)acrylamide]
- IC50 (3T3 cells; read-out: MTT Assay IC50 3T3): > 10 µM
- IC50 (MS751 cells; [3]): 0.1 to 5 µM
- IC50 (Z138 cells; read-out: MTT Assay IC50 Z-138): 0.1 to 5 µM
